Legend:
[1] = Post-mortem biodistribution in healthy rats; format: in vivo, Wistar rats; settings: for Ex vivo biodistribution, Blood / Ex vivo biodistribution, Bone / Ex vivo biodistribution, Brain / Ex vivo biodistribution, Heart / Ex vivo biodistribution, Kidney / Ex vivo biodistribution, Large Intestine / Ex vivo biodistribution, Liver / Ex vivo biodistribution, Lung / Ex vivo biodistribution, Muscle / Ex vivo biodistribution, Spleen / Ex vivo biodistribution, Urine / Ex vivo biodistribution, Small Intestine: healthy rats, mean ± SD, n = 3
Protocol: Wistar rats (male, 319 ± 20 g) were injected intravenously via the tail vein with either ^18F-FPBT (1.0 ± 0.4 MBq) or ^18F-FPBT-Ox (1.1 ± 0.5 MBq). The animals were sacrificed by cervical dislocation at 1, 5, or 30 min postinjection (n = 3/group). Organs and tissues of interest were harvested and weighed, and the radioactivity was measured in a gamma counter. Organ uptake was calculated as the percentage injected dose per gram of tissue mass (% ID/g). Data are reported as mean ± SD.

[2] = PET/CT imaging in rat model of doxorubicin-induced cardiotoxicity; format: in vivo, Wistar rats; settings: PET, 30 min scan, doxorubicin n = 6, saline n = 4
Protocol: Male Wistar rats (280–300 g) were used in all experiments. Subcutaneous 7 day osmotic pumps (Alzet), containing either doxorubicin (Cambridge Bioscience, 30 mg/kg cumulative dose) or vehicle (sterile 0.9% NaCl), were inserted into rats under 2% isoflurane in 100% oxygen.
Wistar rats that had received either doxorubicin treatment (male, 267 ± 19 g, n = 6) or saline (male, 303 ± 9 g, n = 4) via osmotic pumps for 7 days were injected with ^18F-FPBT (2.6 ± 1.5 MBq) via the tail vein on the PET/CT scanner bed. The time of injection coincided with the beginning of PET acquisition in order to obtain dynamic tracer uptake information. PET scans with the chest area in the field of vision were acquired for 30 min, followed by a CT scan, after which the animals were sacrificed and organs harvested, weighed, and gamma-counted as for the biodistribution protocol. The hearts were frozen in liquid nitrogen for gamma counting and oxidative stress biomarker assays. The PET data was reconstructed into three frames: 0–3 min, 3–10 min, and 10–30 min. For the time–activity curve, the PET data was reconstructed into 1 min per frame in the first 5 min and then 5 min per frame between 5 and 30 min. […] Radioactivity uptake in the heart was calculated as a standard uptake value ratio (SUVR) between left ventricle and blood. […]

[3] = Reactivity of 18F-FPBT to reactive oxygen species: superoxide; settings: potassium superoxide, 5 min, ascorbate 1 mg/mL, n = 3
Protocol: ^18F-FPBT (0.5–2.0 MBq) was reacted with potassium superoxide (source of superoxide, 1 mg), hydrogen peroxide (100 μM), Fenton-reaction-generated hydroxyl radicals (100 μM), iron(II) sulfate heptahydrate (100 μM), tert-butyl hydroperoxide (100 μM), tert-butoxy radical (100 μM), and 3-morpholinosydnomine (source of peroxynitrite (100 μM)) for 5 min or diethylamine NONOate (source of nitric oxide, 100 μM) for 30 min at room temperature, after which it was subjected to radio-HPLC analysis and % oxidation was calculated.

[4] = Lipophilicity, partition between 1-octanol and PBS; format: physicochemical; settings: 1-octanol/PBS, pH 7.4, 1-octanol/PBS pH 7.4, shake-flask, n = 6; read-out: LogD
Protocol: The lipophilicity of ^18F-FPBT and ^18F-FPBT-Ox was determined by a conventional partition method between 1-octanol and phosphate buffered saline (PBS), pH 7.4. 1-Octanol was presaturated with PBS before use. The radiotracer (∼2 KBq) was added to a mixture of PBS (200 μL) and 1-octanol (200 μL) in a 1.5 mL Eppendorf vial (n = 6). The mixture was vigorously agitated at rt for 5 min and then centrifuged at 3000 g for 10 min. A 100 μL aliquot from each layer was drawn for measurement in a gamma counter. The LogDoct/PBS was calculated as follows: log [(cpm in the 1-octanol layer – cpm 1-octanol blank)/(cpm in the PBS layer – cpm PBS blank)].

Uptake by major organs (brain, heart, lung, spleen), in words ([1]; healthy Wistar rats, iv): rapid uptake
Ex vivo biodistribution, Blood ([1]; iv, 1 min): 0.12 ± 0.05 % ID/g
Ex vivo biodistribution, Bone ([1]; iv, 1 min): 0.14 ± 0.01 % ID/g
Ex vivo biodistribution, Brain ([1]; iv, 1 min): 0.57 ± 0.04 % ID/g
Ex vivo biodistribution, Heart ([1]; iv, 1 min): 1.33 ± 0.15 % ID/g
Ex vivo biodistribution, Kidney ([1]; iv, 1 min): 1.58 ± 0.11 % ID/g
Ex vivo biodistribution, Large Intestine ([1]; iv, 1 min): 0.21 ± 0.03 % ID/g
Ex vivo biodistribution, Liver ([1]; iv, 1 min): 1.52 ± 0.25 % ID/g
Ex vivo biodistribution, Lung ([1]; iv, 1 min): 0.66 ± 0.15 % ID/g
Ex vivo biodistribution, Muscle ([1]; iv, 1 min): 0.08 ± 0.03 % ID/g
Ex vivo biodistribution, Spleen ([1]; iv, 1 min): 0.67 ± 0.09 % ID/g
Ex vivo biodistribution, Urine ([1]; iv, 1 min): 0.02 ± 0.01 % ID/g
Ex vivo biodistribution, Blood ([1]; iv, 5 min): 0.06 ± 0.00 % ID/g
Ex vivo biodistribution, Bone ([1]; iv, 5 min): 0.18 ± 0.18 % ID/g
Ex vivo biodistribution, Brain ([1]; iv, 5 min): 0.33 ± 0.04 % ID/g
Ex vivo biodistribution, Heart ([1]; iv, 5 min): 0.37 ± 0.08 % ID/g
Ex vivo biodistribution, Kidney ([1]; iv, 5 min): 0.60 ± 0.27 % ID/g
Ex vivo biodistribution, Large Intestine ([1]; iv, 5 min): 0.13 ± 0.02 % ID/g
Ex vivo biodistribution, Liver ([1]; iv, 5 min): 1.75 ± 0.19 % ID/g
Ex vivo biodistribution, Lung ([1]; iv, 5 min): 0.34 ± 0.03 % ID/g
Ex vivo biodistribution, Muscle ([1]; iv, 5 min): 0.05 ± 0.03 % ID/g
Ex vivo biodistribution, Small Intestine ([1]; iv, 5 min): 0.53 ± 0.31 % ID/g
Ex vivo biodistribution, Spleen ([1]; iv, 5 min): 0.18 ± 0.01 % ID/g
Ex vivo biodistribution, Urine ([1]; iv, 5 min): 1.22 ± 0.89 % ID/g
Ex vivo biodistribution, Blood ([1]; iv, 30 min): 0.03 ± 0.00 % ID/g
Ex vivo biodistribution, Bone ([1]; iv, 30 min): 0.13 ± 0.02 % ID/g
Ex vivo biodistribution, Brain ([1]; iv, 30 min): 0.06 ± 0.01 % ID/g
Ex vivo biodistribution, Heart ([1]; iv, 30 min): 0.20 ± 0.04 % ID/g
Ex vivo biodistribution, Kidney ([1]; iv, 30 min): 0.17 ± 0.00 % ID/g
Ex vivo biodistribution, Large Intestine ([1]; iv, 30 min): 0.10 ± 0.03 % ID/g
Ex vivo biodistribution, Liver ([1]; iv, 30 min): 0.47 ± 0.13 % ID/g
Ex vivo biodistribution, Lung ([1]; iv, 30 min): 0.18 ± 0.01 % ID/g
Ex vivo biodistribution, Muscle ([1]; iv, 30 min): 0.08 ± 0.02 % ID/g
Ex vivo biodistribution, Small Intestine ([1]; iv, 30 min): 5.01 ± 0.90 % ID/g
Ex vivo biodistribution, Spleen ([1]; iv, 30 min): 0.05 ± 0.01 % ID/g
Ex vivo biodistribution, Urine ([1]; iv, 30 min): 3.79 ± 2.12 % ID/g
Defluorination in vivo (radioactivity accumulation in the bone) ([1]; rats and mice): inert toward defluorination
LogD [4]: 1 ± 0.08
Structure (SMILES): [18F]CCCN1c2ccccc2SC1c1ccccc1 (stereo not drawn) [^18F-FPBT, 3-(3-[^18F]Fluoropropyl)-2-phenyl-2,3-dihydrobenzo[d]thiazole]
Route of clearance / excretion, in words ([1]; healthy Wistar rats, iv): excreted by both renal and hepatobiliary routes
SUVR LV/blood (heart uptake) of doxorubicin-treated rats compared to vehicle control group [2]: statistically significantly (p < 0.05) higher
SUVR LV/blood (heart uptake) of doxorubicin-treated rats compared to vehicle control group ([2]; listed as 18F-FBPT): significantly higher (P < 0.05) uptake
% oxidation by superoxide in the presence of ascorbate [3]: 31 ± 5%

Reference: PMC8728736, “A Reactivity-Based ^18F-Labeled Probe for PET Imaging of Oxidative Stress in Chemotherapy-Induced Cardiotoxicity” (Molecular Pharmaceutics, 2021)
